Experimental data: patent publication US7767659B2, “Synthesis of naturally occurring ecteinascidins and related compounds” (Pharma Mar, S.A., priority 2002, dated 2010)

What was measured:
IGROV-ET = experiment: Inhibition of cells growth by colorimetric assay (SRB); conditions: Homo sapiens, 48 h; for GI50: read-out: IGROV-ET GI50; for CC50: read-out: IGROV-ET LC50; for IC (TGI): read-out: IGROV-ET TGI
Method in brief: (§1)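 Colorimetric SRB read (490 nm) on triplicate wells after 48 h at 37 °C, 5% CO2. Dose range 10 to 10^−8 μg/ml; 5×10^3 cells/well pre-attached 18 h.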

PANC-1 = experiment: as above; conditions: Homo sapiens, PANC-1, 48 h; for GI50: read-out: PANC-1 GI50; for CC50: read-out: PANC-1 LC50; for IC (TGI): read-out: PANC-1 TGI
Method in brief: as §1

SK-MEL-28 = experiment: as above; conditions: Homo sapiens, SK-MEL-28, 48 h; for GI50: read-out: MEL-28 GI50; for CC50: read-out: MEL-28 LC50; for IC (TGI): read-out: MEL-28 TGI
Method in brief: as §1

LoVo-Dox = experiment: as above; conditions: Homo sapiens, 48 h; for GI50: read-out: LOVO-DOX GI50; for CC50: read-out: LOVO-DOX LC50; for IC (TGI): read-out: LOVO-DOX TGI
Method in brief: as §1

K-562 = experiment: as above; conditions: Homo sapiens, K562, 48 h; for GI50: read-out: K562 GI50; for CC50: read-out: K562 LC50; for IC (TGI): read-out: K562 TGI
Method in brief: as §1

LNCaP = experiment: as above; conditions: Homo sapiens, LNCaP, 48 h; for GI50: read-out: LNCAP GI50; for CC50: read-out: LNCAP LC50; for IC (TGI): read-out: LNCAP TGI
Method in brief: as §1

HeLa-APL = experiment: as above; conditions: Homo sapiens, 48 h
Method in brief: as §1

DU-145 = experiment: as above; conditions: Homo sapiens, DU-145, 48 h; for GI50: read-out: DU145 GI50; for CC50: read-out: DU145 LC50; for IC (TGI): read-out: DU145 TGI
Method in brief: as §1

SK-BR-3 = experiment: as above; conditions: Homo sapiens, SK-BR-3, 48 h
Method in brief: as §1

IGROV-1 = experiment: as above; conditions: Homo sapiens, IGROV-1, 48 h; for GI50: read-out: IGROV GI50; for CC50: read-out: IGROV LC50; for IC (TGI): read-out: IGROV TGI
Method in brief: as §1

HeLa = experiment: as above; conditions: Homo sapiens, HeLa, 48 h
Method in brief: as §1

LoVo = experiment: cells; conditions: Homo sapiens, LoVo, 48 h; for GI50: read-out: LOVO GI50; for CC50: read-out: LOVO LC50; for IC (TGI): read-out: LOVO TGI
Method in brief: as §1

A-549 = experiment: cells; conditions: Homo sapiens, A549, 48 h; for GI50: read-out: A549 GI50; for CC50: read-out: A549 LC50; for IC (TGI): read-out: A549 TGI
Method in brief: as §1

HT-29 = experiment: cells; conditions: Homo sapiens, HT-29, 48 h; for GI50: read-out: HT29 GI50; for CC50: read-out: HT29 LC50; for IC (TGI): read-out: HT29 TGI
Method in brief: as §1

SK-OV-3 = experiment: Inhibition of cells growth by colorimetric assay (SRB); conditions: for GI50 / CC50: Homo sapiens, SK-OV-3, 48 h; for GI50: read-out: SK-OV3 GI50; for CC50: read-out: SK-OV3 LC50; for SK-OV3 TGI: SRB, 48 hours exposure
Method in brief: as §1

## COc1cc2c(cc1O)CCN[C@]21CS[C@@H]2c3c(O)c(C)c4c(c3[C@H](COC1=O)N1C2[C@@H]2N[C@@H](Cc3cc(C)c(OC)c(O)c32)[C@@H]1O)OCO4 (stereo partly drawn) [compound 68]
IGROV-ET
  GI50: 290 nM
  CC50: 8630 nM
  IC (TGI): 1660 nM
PANC-1
  GI50: 3.9 nM
  CC50: 2070 nM
  IC (TGI): 12.8 nM
SK-MEL-28
  GI50: 5.45 nM
  CC50: 52.1 nM
  IC (TGI): 15.7 nM
LoVo-Dox
  GI50: 472 nM
  CC50: 14200 nM
  IC (TGI): 14200 nM
K-562
  GI50: 2.65 nM
  CC50: 234 nM
  IC (TGI): 6.6 nM
LNCaP
  GI50: 1.59 nM
  CC50: 8.64 nM
  IC (TGI): 3.7 nM
HeLa-APL; read-out: HELA-APL GI50
  GI50: 3.81 nM
HeLa-APL; read-out: HELA-APL LC50
  CC50: 10.4 nM
HeLa-APL; read-out: HELA-APL TGI
  IC (TGI): 6.32 nM
DU-145
  GI50: 4.68 nM
  CC50: 14200 nM
  IC (TGI): 1.5 nM
SK-BR-3; read-out: SK-BR3 GI50
  GI50: 7.2 nM
SK-BR-3; read-out: SK-BR3 LC50
  CC50: 14200 nM
SK-BR-3; read-out: SK-BR3 TGI
  IC (TGI): 153 nM
IGROV-1
  GI50: 3.94 nM
  CC50: 35.1 nM
  IC (TGI): 8.01 nM
HeLa; read-out: HELA GI50
  GI50: 4 nM
HeLa; read-out: HELA LC50
  CC50: 12.4 nM
HeLa; read-out: HELA TGI
  IC (TGI): 7.06 nM
LoVo
  GI50: 12 nM
  CC50: 1930 nM
  IC (TGI): 48 nM
A-549
  GI50: 28.1 nM
  CC50: 6290 nM
  IC (TGI): 113 nM
HT-29
  GI50: 6.66 nM
  CC50: 14200 nM
  IC (TGI): 15 nM

## COc1cc2c(cc1O)CCN[C@]21CS[C@@H]2c3c(OC(C)=O)c(C)c4c(c3[C@H](CNC1=O)N1C2[C@H]2c3c(cc(C)c(OC)c3O)C[C@@H]([C@@H]1C#N)N2C)OCO4 (stereo partly drawn) [compound 76]
IGROV-ET
  GI50: 513 nM
  CC50: 1300 nM
  IC (TGI): 924 nM
PANC-1
  GI50: 695 nM
  CC50: 13000 nM
  IC (TGI): 4970 nM
SK-OV-3
  GI50: 547 nM
  CC50: 13000 nM
  SK-OV3 TGI: 1.90E−06 Molar
SK-MEL-28
  GI50: 238 nM
  CC50: 1270 nM
  IC (TGI): 549 nM
LoVo-Dox
  GI50: 2660 nM
  CC50: 13000 nM
  IC (TGI): 8130 nM
K-562
  GI50: 26.9 nM
  CC50: 13000 nM
  IC (TGI): 130 nM
LNCaP
  GI50: 46.6 nM
  CC50: 257 nM
  IC (TGI): 80.7 nM
DU-145
  GI50: 492 nM
  CC50: 13000 nM
  IC (TGI): 1340 nM
IGROV-1
  GI50: 197 nM
  CC50: 5250 nM
  IC (TGI): 648 nM
LoVo
  GI50: 274 nM
  CC50: 1300 nM
  IC (TGI): 683 nM
A-549
  GI50: 413 nM
  CC50: 4650 nM
  IC (TGI): 840 nM
HT-29
  GI50: 627 nM
  CC50: 13000 nM
  IC (TGI): 1300 nM

## COc1cc2c(cc1O)CCN[C@]21CS[C@@H]2c3c(OC(C)=O)c(C)c4c(c3[C@H](CNC1=O)N1C2[C@H]2c3c(cc(C)c(OC)c3O)CC([C@@H]1O)N2C)OCO4 (stereo partly drawn) [compound 77]
IGROV-ET
  GI50: 652 nM
  CC50: 13100 nM
  IC (TGI): 1700 nM
PANC-1
  GI50: 418 nM
  CC50: 13100 nM
  IC (TGI): 2720 nM
SK-OV-3
  GI50: 439 nM
  CC50: 13100 nM
  SK-OV3 TGI: 4.86E−06 Molar
SK-MEL-28
  GI50: 63.1 nM
  CC50: 756 nM
  IC (TGI): 175 nM
LoVo-Dox
  GI50: 929 nM
  CC50: 13100 nM
  IC (TGI): 5660 nM
K-562
  GI50: 16.6 nM
  CC50: 13100 nM
  IC (TGI): 101 nM
LNCaP
  GI50: 43.5 nM
  CC50: 118 nM
  IC (TGI): 71 nM
DU-145
  GI50: 301 nM
  CC50: 13100 nM
  IC (TGI): 1160 nM
IGROV-1
  GI50: 58 nM
  CC50: 6320 nM
  IC (TGI): 272 nM
LoVo
  GI50: 241 nM
  CC50: 13100 nM
  IC (TGI): 917 nM
A-549
  GI50: 301 nM
  CC50: 3650 nM
  IC (TGI): 728 nM
HT-29
  GI50: 189 nM
  CC50: 13100 nM
  IC (TGI): 908 nM
